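Cultured in 96-well plates, cells were exposed to test compound for 48 hours across five concentrations. GI50: concentration for 50% inhibition of growth. TGI: concentration producing complete growth inhibition.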
Key:
Assay in all cases: growth of human tumour cells (NCI), 48 h
[1] = test system: 786-0 renal
[2] = test system: A498 renal
[3] = test system: A549 NSCLC
[4] = test system: ACHN renal
[5] = test system: BT-549 breast
[6] = test system: CAKI-1 renal
[7] = test system: CCRF-CEM leukemia
[8] = test system: COLO 205 colon
[9] = test system: DU-145 prostate
[10] = test system: EKVX NSCLC
[11] = test system: HCC-2998 colon
[12] = test system: HCT-116 colon
[13] = test system: HCT-15 colon
[14] = test system: HOP-62 NSCLC
[15] = test system: HOP-92 NSCLC
[16] = test system: HS 578T breast
[17] = test system: HT29 colon
[18] = test system: IGROV1 ovarian
[19] = test system: KM12 colon
[20] = test system: LOX IMVI melanoma
[21] = test system: M14 melanoma
[22] = test system: MALME-3M melanoma
[23] = test system: MCF7 breast
[24] = test system: MDA-MB-231 breast
[25] = test system: MDA-MB-435
[26] = test system: NCI-H226 lung
[27] = test system: NCI-H23 lung
[28] = test system: NCI-H460 lung
[29] = test system: NCI-H522 lung
[30] = test system: NCI/ADR-RES ovarian
[31] = test system: OVCAR-3 ovarian
[32] = test system: OVCAR-4 ovarian
[33] = test system: OVCAR-5 ovarian
[34] = test system: OVCAR-8 ovarian
[35] = test system: PC-3 prostate
[36] = test system: RPMI-8226 leukemia
[37] = test system: RXF 393 renal
[38] = test system: SF-268 CNS
[39] = test system: SF-295 CNS
[40] = test system: SF-539 CNS
[41] = test system: SK-MEL-2 melanoma
[42] = test system: SK-MEL-28 melanoma
[43] = test system: SK-MEL-5 melanoma
[44] = test system: SK-OV-3 ovarian
[45] = test system: SN12C renal
[46] = test system: SNB-19 CNS
[47] = test system: SNB-75 CNS
[48] = test system: SW-620 colon
[49] = test system: T-47D breast
[50] = test system: TK-10 renal
[51] = test system: U251 CNS
[52] = test system: UACC-257 melanoma
[53] = test system: UACC-62 melanoma
[54] = test system: UO-31 renal

Cc1ccccc1N=Nc1ccc(NC(=O)c2ccnn2C)c(C)c1
GI50 [1]: 18.8 µM | TGI [1]: > 100 µM | GI50 [2]: 13.2 µM | TGI [2]: 42.6 µM | GI50 [3]: 73.9 µM | TGI [3]: > 100 µM | GI50 [4]: 23.9 µM | TGI [4]: > 100 µM | GI50 [5]: 8.53 µM | TGI [5]: > 100 µM | GI50 [6]: 55.4 µM | TGI [6]: > 100 µM | GI50 [7]: 43.3 µM | TGI [7]: > 100 µM | GI50 [8]: > 100 µM | TGI [8]: > 100 µM | GI50 [9]: > 100 µM | TGI [9]: > 100 µM | GI50 [10]: 7.72 µM | TGI [10]: > 100 µM | GI50 [11]: > 100 µM | TGI [11]: > 100 µM | GI50 [12]: 5.99 µM | TGI [12]: > 100 µM | GI50 [13]: 68.4 µM | TGI [13]: > 100 µM | GI50 [14]: 29.4 µM | TGI [14]: > 100 µM | GI50 [15]: 6.99 µM | TGI [15]: 34.9 µM | GI50 [16]: 22.1 µM | TGI [16]: > 100 µM | GI50 [17]: > 100 µM | TGI [17]: > 100 µM | GI50 [18]: 25.1 µM | TGI [18]: > 100 µM | GI50 [19]: > 100 µM | TGI [19]: > 100 µM | GI50 [20]: 72.2 µM | TGI [20]: > 100 µM | GI50 [21]: 32.4 µM | TGI [21]: > 100 µM | GI50 [22]: 14.5 µM | TGI [22]: > 100 µM | GI50 [23]: 17.8 µM | TGI [23]: > 100 µM | GI50 [24]: 20.2 µM | TGI [24]: 78.2 µM | GI50 [25]: 54.9 µM | TGI [25]: > 100 µM | GI50 [26]: 15 µM | TGI [26]: 89.6 µM | GI50 [27]: 18.7 µM | TGI [27]: > 100 µM | GI50 [28]: 26.5 µM | TGI [28]: > 100 µM | GI50 [29]: 30 µM | TGI [29]: > 100 µM | GI50 [30]: 63.7 µM | TGI [30]: > 100 µM | GI50 [31]: > 100 µM | TGI [31]: > 100 µM | GI50 [32]: 8.71 µM | TGI [32]: > 100 µM | GI50 [33]: > 100 µM | TGI [33]: > 100 µM | GI50 [34]: 98.5 µM | TGI [34]: > 100 µM | GI50 [35]: 92.7 µM | TGI [35]: > 100 µM | GI50 [36]: 3.41 µM | TGI [36]: > 100 µM | GI50 [37]: 18.5 µM | TGI [37]: 47.2 µM | GI50 [38]: 31.7 µM | TGI [38]: > 100 µM | GI50 [39]: 23.9 µM | TGI [39]: > 100 µM | GI50 [40]: 36.5 µM | TGI [40]: > 100 µM | GI50 [41]: 28.6 µM | TGI [41]: > 100 µM | GI50 [42]: > 100 µM | TGI [42]: > 100 µM | GI50 [43]: 4.99 µM | TGI [43]: 72.2 µM | GI50 [44]: 24 µM | TGI [44]: > 100 µM | GI50 [45]: 97.1 µM | TGI [45]: > 100 µM | GI50 [46]: 24.4 µM | TGI [46]: > 100 µM | GI50 [47]: 3.66 µM | TGI [47]: 33.5 µM | GI50 [48]: > 100 µM | TGI [48]: > 100 µM | GI50 [49]: 9.9 µM | TGI [49]: > 100 µM | GI50 [50]: 20.5 µM | TGI [50]: > 100 µM | GI50 [51]: 24 µM | TGI [51]: > 100 µM | GI50 [52]: 49 µM | TGI [52]: > 100 µM | GI50 [53]: 97.2 µM | TGI [53]: > 100 µM | GI50 [54]: 11.2 µM | TGI [54]: > 100 µM

From PubChem BioAssay (NCI)
